pIC50: −log10 of the molar value. Where “and” joins values, the source holds several entries; their conditions need not be identical. Equal entries are not always repeated.
Legend:
Format in all cases: cell-based
[1] = target: T1, SCD5 (Homo sapiens, UniProt Q86SK9); experiment: Growth inhibition of humanized yeast strain expressing SCD5 as sole desaturase; details: for pIC50 / SCD5 % Max Inhibition: humanized yeast strain expressing SCD5
T1 construct: host or cells: S. cerevisiae ole1Δ strain (W303 pdr1Δ pdr3Δ background), plasmid pRS316 with TDH3 promoter and CYC1 terminator
T1 sequence (Q86SK9 1-330): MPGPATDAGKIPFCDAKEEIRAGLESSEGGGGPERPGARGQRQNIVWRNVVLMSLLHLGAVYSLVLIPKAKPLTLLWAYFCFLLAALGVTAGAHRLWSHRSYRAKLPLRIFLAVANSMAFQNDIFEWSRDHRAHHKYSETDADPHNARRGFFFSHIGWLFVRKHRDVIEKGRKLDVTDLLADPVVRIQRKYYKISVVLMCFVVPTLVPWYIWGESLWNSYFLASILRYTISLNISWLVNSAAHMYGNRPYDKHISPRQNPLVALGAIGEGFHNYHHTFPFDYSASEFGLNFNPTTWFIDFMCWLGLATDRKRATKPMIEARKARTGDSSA
Summary of the method: (§1)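 Plasmid-complemented ole1Δ yeast, drug-pump deleted (pdr1Δ pdr3Δ), depend solely on the introduced Ole1, SCD1 or SCD5 desaturase. Compounds are added from DMSO to cells in uracil-free galactose medium, 2× density 0.02, and OD600 is read after 24 h or 40 h respectively.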

[2] = target: T2, Ole1 (Saccharomyces cerevisiae, UniProt P21147); experiment: Growth inhibition of yeast strain expressing Ole1 as sole desaturase; details: for pIC50 / OLE1 % Max Inhibition: yeast strain expressing Ole1 as sole desaturase
T2 construct: expressed in transfected cells; host or cells: S. cerevisiae ole1Δ strain (W303 pdr1Δ pdr3Δ background), plasmid pRS316 with TDH3 promoter and CYC1 terminator
T2 sequence (P21147 1-510): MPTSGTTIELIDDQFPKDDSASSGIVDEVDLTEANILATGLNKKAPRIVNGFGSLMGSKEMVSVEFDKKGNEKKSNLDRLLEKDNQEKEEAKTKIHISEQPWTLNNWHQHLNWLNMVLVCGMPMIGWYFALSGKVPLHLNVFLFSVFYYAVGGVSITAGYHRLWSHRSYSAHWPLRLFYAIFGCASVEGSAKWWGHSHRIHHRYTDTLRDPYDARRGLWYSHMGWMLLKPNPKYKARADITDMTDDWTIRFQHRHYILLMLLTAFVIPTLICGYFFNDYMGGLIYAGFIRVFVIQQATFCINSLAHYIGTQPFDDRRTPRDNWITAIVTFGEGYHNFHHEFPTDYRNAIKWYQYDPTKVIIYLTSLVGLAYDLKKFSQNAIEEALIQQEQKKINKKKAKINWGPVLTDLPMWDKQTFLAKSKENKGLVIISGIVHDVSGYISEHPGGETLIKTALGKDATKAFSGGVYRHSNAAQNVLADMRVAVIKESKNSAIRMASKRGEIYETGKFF
Summary of the method: as §1

[3] = target: T3, SCD1 (Homo sapiens, UniProt O00767); experiment: Growth inhibition of humanized yeast strain expressing SCD1 as sole desaturase; details: for SCD1 % Max Inhibition / pIC50: humanized yeast strain expressing SCD1
T3 construct: host or cells: S. cerevisiae ole1Δ strain (W303 pdr1Δ pdr3Δ background), plasmid pRS316 with TDH3 promoter and CYC1 terminator
T3 sequence (O00767 1-359): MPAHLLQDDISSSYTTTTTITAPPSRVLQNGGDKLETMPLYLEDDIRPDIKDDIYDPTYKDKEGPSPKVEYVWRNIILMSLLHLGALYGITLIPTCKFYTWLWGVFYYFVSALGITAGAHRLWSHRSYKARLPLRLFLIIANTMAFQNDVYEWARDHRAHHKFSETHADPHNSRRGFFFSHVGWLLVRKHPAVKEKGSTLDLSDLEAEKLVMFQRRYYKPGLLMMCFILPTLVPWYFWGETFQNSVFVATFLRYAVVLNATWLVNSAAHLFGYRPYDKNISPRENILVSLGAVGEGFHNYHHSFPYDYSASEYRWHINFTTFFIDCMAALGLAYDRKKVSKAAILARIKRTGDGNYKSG
Summary of the method: as §1

| Compound | pIC50 [1] | SCD5 % Max Inhibition [1] | pIC50 [2] | OLE1 % Max Inhibition [2] | SCD1 % Max Inhibition [3] | pIC50 [3] | half-maximal inhibitory concentration (IC50) ([1]; SCD5 humanized strain, FIG. 6) | growth of yeast expressing OLE1 in presence of inhibitor ([2]; FIG. 6) | half-maximal inhibitory concentration (IC50) ([3]; SCD1 humanized strain, FIG. 6) |
| --- | --- | --- | --- | --- | --- | --- | --- | --- | --- |
| CC(C)n1ncc2cc(-c3noc(C4CCN(C(=O)CNC(=O)c5ccccc5)CC4)n3)ccc21 [Compound 228] | < 4.35 | 2.72% | < 4.35 | 21.30% | 51.80% | – | – | – | – |
| Cc1nn(C)c2cc(-c3nsc(C4CCN(C(=O)C5CC(=O)N(c6ccccc6)C5)CC4)n3)ccc12 (centres unmarked) [Compound 251] | < 4.35 | 20.59% | < 4.35 | 7.80% | 83.15% | < 4.35 | – | – | – |
| CC(C)n1cc2cc(-c3noc(C4CCN(C(=O)CNC(=O)c5ccccc5)CC4)n3)ccc2n1 [Compound 229] | < 4.35 | 71.18% | < 4.35 | 89.56% | 66.51% | < 4.35 | – | – | – |
| Cc1ccc(N2CC(C(=O)N3CCC(c4nc(N5CC6(COC6)C5)no4)CC3)CC2=O)nc1 (centres unmarked) [Compound 333] | < 4.35 | 62.3% | < 4.35 | 81.2% | 55.6% | < 4.35 | – | – | – |
| Cc1nn(C)c2cc(-c3nsc(C4CCN(C(=O)CNC(=O)c5ccccc5)CC4)n3)ccc12 [Compound 250] | < 4.35 | 14.48% | < 4.35 | 4.41% | 86.09% | – | – | – | – |
| Cc1nn(C)c2cc(-c3noc(C4CCN(C(=O)CNC(=O)c5cccc(C#N)c5)CC4)n3)ccc12 [Compound 268] | < 4.35 | 8.68% and 2.67% | < 4.35 | 4.39% and 0.14% | 79.03% and 65% | ≤ 4.35 | – | – | – |
| CCN(Cc1nc(-c2ccccc2)no1)C(=O)Cc1cccc2ccccc12 [Compound 156] | < 4.35 | 22.37% | 4.43 | 63.63% | 72.58% | < 4.35 | – | – | – |
| O=C(NCC(=O)N1CCC(c2nc(-c3ccc4nonc4c3)no2)CC1)c1ccccc1 [Compound 163] | < 4.35 | 24.77% | < 4.35 | 71.84% | 55.99% | 4.44 | – | – | – |
| Cc1nn(C)c2cc(-c3noc(C4CCN(C(=O)C5CC(=O)N(CC6CC6)C5)CC4)n3)ccc12 (centres unmarked) [Compound 245] | < 4.35 | 66.96% | < 4.35 | 95.26% | 77.70% | < 4.35 | – | – | – |
| Cc1nn(C)c2cc(-c3noc(N4CCN(C(=O)c5cccc(F)c5)CC4)n3)ccc12 [Compound 270] | < 4.35 | 12.30% | 4.38 | 63.00% | 82.42% | – | – | – | – |
| CNC(=O)c1cccc(NC(=O)N2CCC(Oc3ccccc3Cl)CC2)c1 [Compound A939572, reference compound] | – | – | – | – | – | – | low nanomolar | resistant | low nanomolar |
| Cc1c2cc(-c3noc(C4CCN(C(=O)c5ccc(C(C)C)cc5)CC4)n3)ccc2nn1C [Compound 318] | < 4.35 | 33.7% | < 4.35 | 89.1% | 77.6% | < 4.35 | – | – | – |
| Cc1nn(C)c2cc(-c3noc(N4CCN(C(=O)c5ccccc5C(F)(F)F)CC4)n3)ccc12 [Compound 295] | < 4.35 | 9.2% | < 4.35 | 18.4% | 14.4% | – | – | – | – |
| COc1ccc(-c2noc(C3CCN(C(=O)C4CC(=O)N(c5cccc(C#N)c5)C4)CC3)n2)cc1OC(C)C (centres unmarked) [Compound 296] | < 4.35 | 22.6% | < 4.35 | 99.1% | 86.6% | < 4.35 | – | – | – |
| CCOC(=O)C(C)(C)n1cc2ccc(-c3noc(C4CCN(C(=O)CNC(=O)c5ccccc5)CC4)n3)cc2n1 [Compound 194] | < 4.35 | 63.24% | < 4.35 | 60.71% | 74.07% | < 4.35 | – | – | – |
| CCN(Cc1nc(-c2ccc(OC)c(OC)c2)no1)C(=O)Cc1cccc2ccccc12 [Compound 157] | < 4.35 | 72.54% | < 4.35 | 91.55% | 80.54% | < 4.35 | – | – | – |
| CC(C)n1cc2ccc(-c3noc(C4CCN(C(=O)CNC(=O)c5ccccc5)CC4)n3)cc2n1 [Compound 181] | < 4.35 | 81.40% | < 4.35 | 20.70% | 88.32% | < 4.35 | – | – | – |
| O=C(c1ccccc1)N1CCC(c2nc(N3CC4(CCCO4)C3)no2)CC1 [Compound 335] | < 4.35 | 61.2% | < 4.35 | 81.5% | 54.0% | – | – | – | – |
| Cc1ccc(N2C[C@@H](C(=O)N3CCC(c4nc(-c5ccc6c(C)nn(C)c6c5)no4)CC3)CC2=O)nc1 [Compound 302] | < 4.35 | 9.4% and 10.64% | < 4.35 | 6.7% and 5.26% | 71.1% and 50.17% | 4.44 and ≤ 4.35 | – | – | – |
| Cc1nn(C)c2cc(-c3noc(C4CCN(C(=O)NC(C)(C)C)CC4)n3)ccc12 [Compound 282] | 4.54 | 56.23% | < 4.35 | 110.18% | 90.54% | – | – | – | – |
| CC(C)c1ccc(C(=O)N2CCC(c3nc(C(=O)Nc4cnn(C)c4)no3)CC2)cc1 [Compound 285] | < 4.35 | 30.09% | < 4.35 | 105.26% | 45.62% | – | – | – | – |

Source: patent publication US11873298B2, “Compounds and uses thereof” (JANSSEN PHARMACEUTICA NV, priority 2017, dated 2024)
